Data published in patent US8729089B2 (Gilead Sciences, Inc., priority 2006, dated 2014).

Assays:
[1] = CC50 assay (CellTiter-Glo) in Huh-7 HCV replicon cells; assay type: cell-based, human; settings: human, 3 days incubation, CellTiter-Glo readout
Method in brief: (§1)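 Cytotoxicity (CC50) measured by CellTiter-Glo and antiviral activity (EC50) by luciferase signal from lysed cells, both by luminescence. Replicon-bearing Huh-7 cells, 6000 per well, incubated 3 days at 37 °C with threefold-diluted compound (0.5% DMSO for DMSO-dissolved compounds).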

[2] = tested on: HCV replicon in human hepatoma Huh-7 cell line; assay: Anti-HCV replicon assay (EC50, luciferase); assay type: cell-based; settings: Hepatitis C virus, Huh-7, 72 h
Method in brief: as §1

Row | SMILES | CC50 at 3 days [1] [µM] | EC50 [2] [µM]
1 | NS(=O)(=O)c1ccc(CNc2nc(NCC(F)(F)F)c3nc(-c4ccc(F)c(NS(=O)(=O)C5CC5)c4)ccc3n2)cc1 [Example 231, 4-{[6-(3-Cyclopropanesulfonylamino-4-fluoro-phenyl)-4-(2,2,2-trifluoro-ethylamino)-pyrido[3,2-d]pyrimidin-2-ylamino]-methyl}-benzenesulfonamide] | > 25 | < 0.1
2 | NS(=O)(=O)c1ccc(CNc2nc(NCC(F)(F)F)c3nc(-c4cccc(S(N)(=O)=O)c4)ccc3n2)cc1 [Example 232, 3-[2-(4-sulfamoyl-benzylamino)-4-(2,2,2-trifluoro-ethylamino)-pyrido[3,2-d]pyrimidin-6-yl]-benzenesulfonamide] | > 25 | < 0.1
3 | NS(=O)(=O)c1ccc(CNc2nc(NCC(F)(F)F)c3nc(-c4ccc(F)c(Cl)c4)ccc3n2)cc1 [Example 233, 4-{[6-(3-Chloro-4-fluoro-phenyl)-4-(2,2,2-trifluoro-ethylamino)-pyrido[3,2-d]pyrimidin-2-ylamino]-methyl}-benzenesulfonamide] | 5 to 25 | < 0.1
4 | NS(=O)(=O)c1ccc(CNc2nc(OC3CC3)c3nc(-c4ccc(F)cc4)ccc3n2)cc1 [Example 234, 4-{[4-Cyclopropoxy-6-(4-fluoro-phenyl)-pyrido[3,2-d]pyrimidin-2-ylamino]-methyl}-benzenesulfonamide] | 5 to 25 | < 0.1
5 | NS(=O)(=O)c1ccc(CNc2nc(Oc3cccc(F)c3)c3nc(-c4ccc(F)cc4)ccc3n2)cc1 [Example 235, 4-{[4-(3-Fluoro-phenoxy)-6-(4-fluoro-phenyl)-pyrido[3,2-d]pyrimidin-2-ylamino]-methyl}-benzenesulfonamide] | 5 to 25 | < 0.1
6 | COCCOc1nc(NCc2ccc(S(N)(=O)=O)cc2)nc2ccc(-c3ccc(F)c(Cl)c3)nc12 [Example 236, 4-{[6-(3-Chloro-4-fluoro-phenyl)-4-(2-methoxy-ethoxy)-pyrido[3,2-d]pyrimidin-2-ylamino]-methyl}-benzenesulfonamide] | 5 to 25 | < 0.1
7 | COCCOc1nc(NCc2ccc(S(N)(=O)=O)cc2)nc2ccc(-c3ccc(F)cc3)nc12 [Example 237, 4-{[6-(4-Fluoro-phenyl)-4-(2-methoxy-ethoxy)-pyrido[3,2-d]pyrimidin-2-ylamino]-methyl}-benzenesulfonamide] | < 5 | < 0.1
8 | NS(=O)(=O)c1cccc(CNc2nc(NCC(F)(F)F)c3nc(-c4ccc(F)cc4)ccc3n2)c1 [Example 238, 3-{[6-(4-Fluoro-phenyl)-4-(2,2,2-trifluoro-ethylamino)-pyrido[3,2-d]pyrimidin-2-ylamino]-methyl}-benzenesulfonamide] | < 5 | < 0.1
9 | Fc1ccc(-c2ccc3nc(NCc4ccc(N5CCCC5)cc4)nc(NCC(F)(F)F)c3n2)cc1 [Example 239, 6-(4-Fluoro-phenyl)-N2-(4-pyrrolidin-1-yl-benzyl)-N4-(2,2,2-trifluoro-ethyl)-pyrido[3,2-d]pyrimidine-2,4-diamine] | 5 to 25 | < 0.1
10 | CN1CCN(c2ccc(CNc3nc(NCC(F)(F)F)c4nc(-c5ccc(F)cc5)ccc4n3)cc2)CC1 [Example 240, 6-(4-Fluoro-phenyl)-N2-[4-(4-methyl-piperazin-1-yl)-benzyl]-N4-(2,2,2-trifluoro-ethyl)-pyrido[3,2-d]pyrimidine-2,4-diamine] | < 5 | < 0.1
11 | CS(=O)(=O)Nc1ccc(CNc2nc(NCC(F)(F)F)c3nc(-c4ccc(F)cc4)ccc3n2)cc1 [Example 241, N-(4-{[6-(4-Fluoro-phenyl)-4-(2,2,2-trifluoro-ethylamino)-pyrido[3,2-d]pyrimidin-2-ylamino]-methyl}-phenyl)-methanesulfonamide] | 5 to 25 | < 0.1
12 | CN(C)C(=O)c1ccc(CNc2nc(NCC(F)(F)F)c3nc(-c4ccc(F)cc4)ccc3n2)cc1 [Example 242, 4-{[6-(4-Fluoro-phenyl)-4-(2,2,2-trifluoro-ethylamino)-pyrido[3,2-d]pyrimidin-2-ylamino]-methyl}-N,N-dimethyl-benzamide] | > 25 | < 0.1
13 | Fc1ccc(-c2ccc3nc(NCc4ccccn4)nc(NCC(F)(F)F)c3n2)cc1 [Example 243, 6-(4-Fluoro-phenyl)-N2-pyridin-2-ylmethyl-N4-(2,2,2-trifluoro-ethyl)-pyrido[3,2-d]pyrimidine-2,4-diamine] | 5 to 25 | < 0.1
14 | Fc1ccc(-c2ccc3nc(NCc4cccnc4)nc(NCC(F)(F)F)c3n2)cc1 [Example 244, 6-(4-Fluoro-phenyl)-N2-pyridin-3-ylmethyl-N4-(2,2,2-trifluoro-ethyl)-pyrido[3,2-d]pyrimidine-2,4-diamine] | 5 to 25 | < 0.1
15 | Fc1ccc(-c2ccc3nc(NCc4ccc(-c5csnn5)cc4)nc(NCC(F)(F)F)c3n2)cc1 [Example 245, 6-(4-Fluoro-phenyl)-N2-(4-[1,2,3]thiadiazol-4-yl-benzyl)-N4-(2,2,2-trifluoro-ethyl)-pyrido[3,2-d]pyrimidine-2,4-diamine] | > 25 | < 0.1
16 | NS(=O)(=O)c1ccc(CNc2nc(NCC(F)(F)F)c3nc(-c4ccc(F)cc4)ccc3n2)c(F)c1 [Example 246, 3-Fluoro-4-{[6-(4-fluoro-phenyl)-4-(2,2,2-trifluoro-ethylamino)-pyrido[3,2-d]pyrimidin-2-ylamino]-methyl}-benzenesulfonamide] | 5 to 25 | < 0.1
17 | Fc1ccc(-c2ccc3nc(NCc4nnco4)nc(NCC(F)(F)F)c3n2)cc1 [Example 247, 6-(4-Fluoro-phenyl)-N2-[1,3,4]oxadiazol-2-ylmethyl-N4-(2,2,2-trifluoro-ethyl)-pyrido[3,2-d]pyrimidine-2,4-diamine] | 5 to 25 | < 0.1
18 | Fc1ccc(-c2ccc3nc(NCc4cncs4)nc(NCC(F)(F)F)c3n2)cc1 [Example 248, 6-(4-Fluoro-phenyl)-N2-thiazol-5-ylmethyl-N4-(2,2,2-trifluoro-ethyl)-pyrido[3,2-d]pyrimidine-2,4-diamine] | 5 to 25 | < 0.1
19 | CC(Nc1nc(NCC(F)(F)F)c2nc(-c3ccc(F)cc3)ccc2n1)c1ccc(S(N)(=O)=O)cc1 (centres unmarked) [Example 249, 4-{1-[6-(4-Fluoro-phenyl)-4-(2,2,2-trifluoro-ethylamino)-pyrido[3,2-d]pyrimidin-2-ylamino]-ethyl}-benzenesulfonamide] | < 5 | < 0.1
20 | Fc1ccc(-c2ccc3nc(NCc4ccc(-n5cncn5)cc4)nc(NCC(F)(F)F)c3n2)cc1 [Example 251, 6-(4-Fluoro-phenyl)-N2-(4-[1,2,4]triazol-1-yl-benzyl)-N4-(2,2,2-trifluoro-ethyl)-pyrido[3,2-d]pyrimidine-2,4-diamine] | > 25 | < 0.1
21 | COCCNc1nc(NCC(F)(F)F)c2nc(-c3ccc(F)cc3)ccc2n1 [Example 252, 6-(4-Fluoro-phenyl)-N2-(2-methoxy-ethyl)-N4-(2,2,2-trifluoro-ethyl)-pyrido[3,2-d]pyrimidine-2,4-diamine] | 5 to 25 | < 0.1
22 | Fc1ccc(-c2ccc3nc(NCc4ncco4)nc(NCC(F)(F)F)c3n2)cc1 [Example 253, 6-(4-Fluoro-phenyl)-N2-oxazol-2-ylmethyl-N4-(2,2,2-trifluoro-ethyl)-pyrido[3,2-d]pyrimidine-2,4-diamine] | < 5 | < 0.1
